Source: patent US11633481B2, “Surfactants for use in healthcare products” (priority 2019, dated 2023)

How the values were obtained:
Format in all cases: physicochemical
[1] = Contact angle (wetting) with optical contact angle goniometer; settings: 10× CMC in water
From the text: Surface-active compounds may also be assessed by their wetting ability on solid substrates as measured by the contact angle. When a liquid droplet comes in contact with a solid surface in a third medium, such as air, a three-phase line forms among the liquid, the gas and the solid. The angle between the surface tension unit vector, acting at the three-phase line and tangent at the liquid droplet, and the surface is described as the contact angle. The contact angle (also known as wetting angle) is a measure of the wettability of a solid by a liquid. In the case of complete wetting, the liquid is completely spread over the solid and the contact angle is 0°. Wetting properties are typically measured for a given compound at the concentration of 1-100×CMC, however, it is not a property that is concentration-dependent therefore measurements of wetting properties can be measured at concentrations that are higher or lower.
In one method, an optical contact angle goniometer may be used to measure the contact angle. This device uses a digital camera and software to extract the contact angle by analyze the contour shape of a sessile droplet of liquid on a surface.
(§1) Nuclear magnetic resonance (NMR) spectroscopy was performed on a Bruker 500 MHz spectrometer. The critical micelle concentration (CMC) was determined by the Wilhelmy plate method at 23° C. with a tensiometer (DCAT 11, DataPhysics Instruments GmbH) equipped with a Pt—Ir plate. Dynamic surface tension was determined with a bubble pressure tensiometer (Krüss BP100, Krüss GmbH), at 23° C. Contact angle was determined with the optical contact angle goniometer (OCA 15 Pro, DataPhysics GmbH) equipped with a digital camera.

[2] = Dynamic surface tension with bubble pressure tensiometer; settings: 23° C.
From the text: Another parameter used to assess the performance of surfactants is dynamic surface tension. The dynamic surface tension is the value of the surface tension for a particular surface or interface age. In the case of liquids with added surfactants, this can differ from the equilibrium value. Immediately after a surface is produced, the surface tension is equal to that of the pure liquid. As described above, surfactants reduce surface tension; therefore, the surface tension drops until an equilibrium value is reached. The time required for equilibrium to be reached depends on the diffusion rate and the adsorption rate of the surfactant.
One method by which dynamic surface tension is measured relies upon a bubble pressure tensiometer. This device measures the maximum internal pressure of a gas bubble that is formed in a liquid by means of a capillary. The measured value corresponds to the surface tension at a certain surface age, the time from the start of the bubble formation to the occurrence of the pressure maximum. The dependence of surface tension on surface age can be measured by varying the speed at which bubbles are produced.
as §1

[3] = Critical micelle concentration and minimum surface tension by Wilhelmy plate method
From the text: These properties may be measured and described by various methods. One method by which surfactants may be described is by the molecule's critical micelle concentration (CMC). CMC may be defined as the concentration of a surfactant at which micelles form, and above which all additional surfactant is incorporated into micelles.
As surfactant concentration increases, surface tension decreases. Once the surface is completely overlaid with surfactant molecules, micelles begin to form. This point represents the CMC, as well as the minimum surface tension. Further addition of surfactant will not further affect the surface tension. CMC may therefore be measured by observing the change in surface tension as a function of surfactant concentration. One such method for measuring this value is the Wilhemy plate method. A Wilhelmy plate is usually a thin iridium-platinum plate attached to a balance by a wire and placed perpendicularly to the air-liquid interface. The balance is used to measure the force exerted on the plate by wetting. This value is then used to calculate the surface tension (γ) according to Equation 1: γ=F/I cos θ Equation 1: wherein I is equal to the wetted perimeter (2w+2d, in which w and d are the […], respectively) and cos θ, the contact angle between the liquid and the plate, is assumed to be 0 in the absence of an extant literature value.
as §1

Solubility in water = settings: pure water, without hydrotropes or other surfactants
[4] = substrate Polyethylene terephthalate
[5] = chloride counterion, pH=7, 23° C.

| SMILES | contact angle (CA) ([1]; substrate Nylon) [°] | contact angle (CA) [1, 4] [°] | contact angle (CA) ([1]; substrate Polyethylene) [°] | contact angle (CA) ([1]; substrate Polypropylene) [°] | contact angle (CA) ([1]; substrate Teflon) [°] | time to fully saturate the interface (dynamic surface tension) ([2]; freshly created air-water interface) | critical micelle concentration (CMC) ([3]; in water, 23° C.) | plateau value of minimum surface tension ([3]; in water, 23° C.) | time to fully saturate a freshly created air-water interface (dynamic surface tension) [2] | solubility in water (Solubility in water) | contact angle (CA) ([1]; substrate Polyethylene-HD) [°] | critical micelle concentration (CMC) [3, 5] | plateau value of minimum surface tension [3, 5] |
| --- | --- | --- | --- | --- | --- | --- | --- | --- | --- | --- | --- | --- | --- |
| C[N+](C)(C)CCCCCC(=O)NCCC[Si](O[Si](C)(C)C)(O[Si](C)(C)C)O[Si](C)(C)C [Surfactant 3, 6-((3-(1,1,1,5,5,5-hexamethyl-3-((trimethylsilyl)oxy)trisiloxan-3-yl)propyl)amino)-N,N,N-trimethyl-6-oxohexan-1-aminium iodide] | 0 | 0 | 0 | 0 | 10.5 | less than 500 ms | about 1.6 mmol | around 20 mN/m | – | – | – | – | – |
| C[N+](C)([O-])CCCCCC(=O)NCCC[Si](O[Si](C)(C)C)(O[Si](C)(C)C)O[Si](C)(C)C [Surfactant 4, 6-((3-(1,1,1,5,5,5-hexamethyl-3-((trimethylsilyl)oxy)trisiloxan-3-yl)propyl)amino)-N,N-dimethyl-6-oxohexan-1-amine oxide] | 0 | 0 | 0 | 0 | 10.6 | – | about 0.49 mmol | about 20 mN/m | one second or less | – | – | – | – |
| CN(C)CCCCCC(=O)NCCC[Si](O[Si](C)(C)C)(O[Si](C)(C)C)O[Si](C)(C)C [Surfactant 1, 6-(dimethylamino)-N-(3-(1,1,1,5,5,5-hexamethyl-3-((trimethylsilyl)oxy)trisiloxan-3-yl)propyl)hexanamide] | – | – | – | – | – | – | – | – | – | slightly soluble | – | – | – |
| C[N+](C)(CCCCCC(=O)NCCC[Si](O[Si](C)(C)C)(O[Si](C)(C)C)O[Si](C)(C)C)CCCCS(=O)(=O)[O-] [Surfactant 5, 4-((6-((3-(1,1,1,5,5,5-hexamethyl-3-((trimethylsilyl)oxy)trisiloxan-3-yl)propyl)amino)-6-oxohexyl)dimethylammonio)butane-1-sulfonate] | 0 | 0 | 0 | 0 | 10.2 | – | about 0.39 mmol | about 21 mN/m | one second or less | – | 0 | – | – |
| CN(C)CCCCCC(=O)NCCC[Si](O[Si](C)(C)C)(O[Si](C)(C)C)O[Si](C)(C)C [Surfactant 2, 6-((3-(1,1,1,5,5,5-hexamethyl-3-((trimethylsilyl)oxy)trisiloxan-3-yl)propyl)amino)-N,N-dimethyl-6-oxohexan-1-aminium chloride] | – | – | – | – | – | – | – | – | – | – | – | about 2 mmol | about 23 mN/m |
